The text below walks through data of US4634706A, “Griseolic acid derivatives, and their use as enzyme inhibitors” (Sankyo Company Limited, priority 1983, dated 1987).

One data set concerns the target cGMP PDE. The experiment in a line: Phosphodiesterase (PDE) inhibitory activity, cGMP substrate. Format: biochemical. To be noted: cGMP as substrate, crude enzyme from rat brains; read-out: I50 cGMP PDE. The method, then:
(§1) The test was carried out following essentially the method of A. L. Pichard and Y. U. Chung [Journal of Biological Chemistry, 251, 5726-5737 (1976)]. A crude enzymatic solution derived from rat brains was used as the source of cAMP PDE.
(§2) ^14 C-labeled cAMP was used as the substrate. It was employed in a 0.2M Tris-hydrochloric acid buffer solution (pH 8.0) in an amount sufficient to provide a final concentration of 0.14 μM. "Tris" is tris(hydroxymethyl)aminomethane. The substrate solution was mixed with an appropriate amount of the compound under test dissolved in 2-5 μl of dimethyl sulfoxide and with 20 μl of a snake venom solution and 40 μl of the crude enzyme solution. Sufficient Tris-hydrochloric acid buffer was added to make a total volume of 100 μl. The mixture was allowed to react at 30° C. for 20 minutes. At the end of this time, the reaction mixture was treated with an Amberlite (trade mark) IRP-58 resin and the level of residual adenosine radioactivity in the product was determined.
The experiment was repeated, except that cyclic guanosine monophosphate (cGMP) was employed as the substrate instead of cAMP. The I50 value against cGMP PDE was also calculated.

In another data set the target is cAMP PDE. Put plainly: Phosphodiesterase (PDE) inhibitory activity, cAMP substrate. Type of data set: biochemical, rat. To be noted: 0.14 μM 14C-labeled cAMP, pH 8.0, 30° C., 20 minutes, crude enzyme from rat brains; read-out: I50 cAMP PDE. The procedure:
as §1, §2

In the next data set the test system is cerebral blood flow. Put plainly: Improving cerebral blood flow. Type of data set: in vivo, rabbit. The source says: The "duration (T1/2)" is the time in minutes required for the increase in cerebral blood flow to reduce by one half.

On to `O=C(O)[C@H](O)C1(C(=O)O)C=C2OC(n3cnc4cncnc43)[C@H](O)C2O1` (some centres unmarked) [Compound No. 53, 6-desamino-6-hydrogriseolic acid], for which the IC50 came out at 1.2 µM on cGMP PDE and 14 µM on cAMP PDE.

For `O=C(Nc1ncnc2c1ncn2C1OC2=CC(C(=O)O)([C@@H](OC(=O)c3ccccc3)C(=O)O)OC2[C@H]1O)c1ccccc1` (some centres unmarked) [Compound No. 39, N^6,O^7' -dibenzoylgriseolic acid], the figures for the IC50 on cGMP PDE and on cAMP PDE were 111 µM and 33 µM, respectively.

For the compound `N=c1c2ncn(C3OC4=CC(C(=O)O)([C@@H](O)C(=O)O)OC4[C@H]3O)c2ncn1Cc1ccccc1` (some centres unmarked) [Compound No. 45, N^1 -benzylgriseolic acid], the IC50 turned out to be 1.2 µM at cGMP PDE and 0.6 µM on cAMP PDE.

With `COc1nc2c(N)ncnc2n1C1OC2=CC(C(=O)O)([C@@H](O)C(=O)O)OC2[C@H]1O` (some centres unmarked) [Compound No. 195, 8-methoxygriseolic acid], the IC50 on cGMP PDE turned out to be 3.2 µM; on cAMP PDE, 3.9 µM.

`O=C(O)C(O)C1(C(=O)O)C=C2OC(n3c(Br)nc4c(=O)[nH]cnc43)C(O)C2O1` (centres unmarked) [Compound No. 197, 8-bromo-6-desamino-6-hydroxygriseolic acid]: the values for the IC50 at cGMP PDE and at cAMP PDE were 13.1 µM and 25 µM, respectively.

Regarding `NNc1ncnc2c1ncn2C1OC2=CC(C(=O)O)([C@@H](O)C(=O)O)OC2[C@H]1O` (some centres unmarked) [Compound No. 60, 6-desamino-6-hydrazinogriseolic acid], the results for the IC50 on cGMP PDE and at cAMP PDE were 4.8 µM and 5.4 µM, respectively.

For the compound `CC(=O)O[C@@H]1C2OC(C(=O)O)([C@@H](OC(C)=O)C(=O)O)C=C2OC1n1cnc2c(N)ncnc21` (some centres unmarked) [Compound No. 41, O^2',O^7' -diacetylgriseolic acid], the IC50 is 243 µM on cGMP PDE and 9.3 µM on cAMP PDE.

In the case of `Nc1ncnc2c1ncn2C1OC2=CC(C(=O)O)([C@@H](O)C(=O)O)OC2[C@@H]1Cl` (stereo partly drawn) [Compound No. 142, 2'(S)-chloro-2'-deoxygriseolic acid], the IC50 at cGMP PDE was 2.5 µM; at cAMP PDE, 0.15 µM.

Turning to `Nc1ncnc2c1ncn2C1OC2=CC(C(=O)O)([C@H](Br)C(=O)O)OC2[C@H]1O` (stereo partly drawn) [Compound No. 137, 7'(S)-bromo-7'-deoxygriseolic acid], the IC50 was 19 µM at cGMP PDE and 3.4 µM at cAMP PDE.

Turning to `Nc1ncnc2c1ncn2C1OC2=CC(C(=O)O)(C(Cl)C(=O)O)OC2[C@H]1O` (some centres unmarked) [Compound No. 88, 7'-chloro-7'-deoxygriseolic acid], the results for the IC50 on cGMP PDE and at cAMP PDE were 14.8 µM and 1.5 µM, respectively.

For `O=C(O)C(O)C1(C(=O)O)C=C2OC(n3cnc4c(=O)[nH]cnc43)C(O)C2O1` (centres unmarked) [Compound No. 51, 6-desamino-6-hydroxygriseolic acid], the IC50 at cGMP PDE came out at 0.13 µM; on cAMP PDE it was 0.32 µM.

In the case of `CNc1ncnc2c1ncn2C1OC2=CC(C(=O)O)([C@@H](O)C(=O)O)OC2[C@H]1O` (some centres unmarked) [Compound No. 58, N^6 -methylgriseolic acid], the results for the IC50 on cGMP PDE and on cAMP PDE were 14 µM and 2 µM, respectively.

On to `Nc1ncnc2c1ncn2C1OC2=CC(CC(=O)O)(C(=O)O)OC2[C@H]1O` (some centres unmarked) [Compound No. 133, 7'-deoxygriseolic acid], for which the “Duration (T 1/2)” value in the data set on cerebral blood flow (10 mg/kg) was over 60 min. In addition, the “Increase in cerebral blood flow (Vp), ratio to papaverine 1 mg/kg” value (shortened to “Increase … ratio to papaverine 1 mg/kg”) with cerebral blood flow (10 mg/kg) stood at 10. Also, the figures for the IC50 at cGMP PDE and on cAMP PDE were 1.1 µM and 0.14 µM, respectively.

Regarding `Nc1ncnc2c1ncn2C1OC2=CC(C(=O)O)([C@@H](O)C(=O)O)OC2[C@@H]1Br` (stereo partly drawn) [Compound No. 143, 2'(S)-bromo-2'-deoxygriseolic acid], the results for the IC50 at cGMP PDE and at cAMP PDE were 4.1 µM and 0.09 µM, respectively.

Take `CC(=O)O[C@@H](C(=O)O)C1(C(=O)O)C=C2OC(n3cnc4c(=N)n(Cc5ccccc5)cnc43)[C@H](O)C2O1` (some centres unmarked) [Compound No. 46, O^7' -acetyl-N^1 -benzylgriseolic acid]: the IC50 on cGMP PDE is 0.9 µM; on cAMP PDE, 1.8 µM.

As for `Cn1c(=O)c2[nH]cnc2n(C)c1=O` [theophylline, reference compound], the IC50 on cGMP PDE amounted to 196 µM; at cAMP PDE, 360 µM.

For the compound `Nc1ncnc2c1ncn2C1OC2=CC(C(=O)O)([C@@H](OC(=O)c3ccccc3)C(=O)O)OC2[C@H]1O` (some centres unmarked) [Compound No. 37, O^7' -benzoylgriseolic acid], the IC50 at cGMP PDE was 2.9 µM; on cAMP PDE, 0.31 µM.

In the case of `O=C(O)[C@H](O)C1(C(=O)O)C=C2OC(n3cnc4c(NCc5ccccc5)ncnc43)[C@H](O)C2O1` (some centres unmarked) [Compound No. 63, N^6 -benzylgriseolic acid], the IC50 at cGMP PDE came out at 9.7 µM; at cAMP PDE, 7.4 µM.

For `[N-]=[N+]=N[C@H]1C2OC(C(=O)O)([C@@H](O)C(=O)O)C=C2OC1n1cnc2c(N)ncnc21` (stereo partly drawn) [Compound No. 247, 2'(S)-azido-2'-deoxygriseolic acid], the IC50 came out at 6.4 µM on cGMP PDE and 0.45 µM at cAMP PDE.

As to `[N-]=[N+]=N[C@H](C(=O)O)C1(C(=O)O)C=C2OC(n3cnc4c(N)ncnc43)[C@H](O)C2O1` (some centres unmarked) [Compound No. 81, 7'-azido-7'-deoxygriseolic acid], the IC50 at cGMP PDE was 13 µM; at cAMP PDE, 4.4 µM.

Take `CC[C@]12CCCN3CCc4c(n(c5ccccc45)[C@@](O)(C(=O)OC)C1)[C@@H]32` [Vincamine, reference compound]: in the data set on cerebral blood flow (1 mg/kg), the “Duration (T 1/2)” value was 3.2 min and the “Increase … ratio to papaverine 1 mg/kg” value is listed as 1.7. In the data set on cerebral blood flow (2.5 mg/kg), the “Duration (T 1/2)” value was 2.1 min and the “Increase … ratio to papaverine 1 mg/kg” value is reported as 3.2.

With `Nc1ncnc2c1ncn2C1OC2=CC(C(=O)O)([C@@H](O)C(=O)O)OC2[C@H]1OC(=O)c1ccccc1` (some centres unmarked) [Compound No. 36, O^2' -benzoylgriseolic acid], the IC50 on cGMP PDE was 48 µM; on cAMP PDE it was 6.8 µM.

For `Nc1ncnc2c1nc(S)n2C1OC2=CC(C(=O)O)([C@@H](O)C(=O)O)OC2[C@H]1O` (some centres unmarked) [Compound No. 192, 8-mercaptogriseolic acid], the IC50 at cGMP PDE amounted to 49.8 µM; at cAMP PDE, 30.4 µM.

Regarding `Nc1ncnc2c1ncn2C1CC2OC(C(=O)O)([C@@H](O)C(=O)O)C=C2O1` (some centres unmarked) [Compound No. 144, 2'-deoxygriseolic acid], the values for the IC50 at cGMP PDE and on cAMP PDE were 1.1 µM and 0.19 µM, respectively.

For `COc1ncnc2c1ncn2C1OC2=CC(C(=O)O)([C@@H](O)C(=O)O)OC2[C@H]1O` (some centres unmarked) [Compound No. 124, 6-desamino-6-methoxygriseolic acid], the IC50 on cGMP PDE was found to be 4.9 µM; at cAMP PDE, 10 µM.

Turning to `COc1ccc(Cc2nccc3cc(OC)c(OC)cc23)cc1OC` [Papaverine, papaverine, reference compound], in the data set on cerebral blood flow (1 mg/kg), the “Change in blood pressure (pascals)” value is listed as -1040 pascals and the “Change in blood pressure mm Hg” value is -7.8 mm Hg.

`Nc1ncnc2c1ncn2C1OC2=CC(C(=O)O)([C@H](O)C(=O)O)OC2[C@H]1O` (stereo partly drawn) [Compound No. 140, 7'-deoxy-7'(S)-hydroxygriseolic acid]: the IC50 at cGMP PDE stood at 2.8 µM; at cAMP PDE it was 0.76 µM.

As to `Nc1ncnc2c1ncn2C1OC2=CC(C(=O)O)([C@@H](O)C(=O)O)OC2[C@@H]1I` (stereo partly drawn) [Compound No. 249, 2'-deoxy-2'(S)-iodogriseolic acid], the IC50 stood at 2.8 µM on cGMP PDE and 0.44 µM at cAMP PDE.

As for `Nc1ncnc2c1nc(Br)n2C1OC2=CC(C(=O)O)([C@@H](O)C(=O)O)OC2[C@H]1O` (some centres unmarked) [Compound No. 196, 8-bromogriseolic acid], the IC50 on cGMP PDE stood at 1.7 µM; on cAMP PDE, 2.5 µM.

`CN(C)c1ncnc2c1ncn2C1OC2=CC(C(=O)O)([C@@H](O)C(=O)O)OC2[C@H]1O` (some centres unmarked) [Compound No. 59, N^6 -dimethylgriseolic acid]: the results for the IC50 on cGMP PDE and on cAMP PDE were 39 µM and 31 µM, respectively.

Regarding `COC(=O)C1=C(C)NC(C)=C(C(=O)OCCN(C)Cc2ccccc2)C1c1cccc([N+](=O)[O-])c1` (centres unmarked) [Nicardipine, reference compound], in the data set on cerebral blood flow (0.01 mg/kg), the “Duration (T 1/2)” value was determined as 14 min and the “Increase … ratio to papaverine 1 mg/kg” value was determined as 3.2.

With `Nc1ncnc2c1nc(Br)n2C1OC23OC(C(=O)O)C(C(=O)O)(OC2[C@H]1O)C3Br` (stereo partly drawn) [Compound No. 187, 4',7'-anhydro-5',α,8-dibromo-4'α-hydroxygriseolic acid], the values for the IC50 at cGMP PDE and on cAMP PDE were 32 µM and 35 µM, respectively.

For `Nc1ncnc2c1ncn2C1OC2=CC(C(=O)O)([C@@H](OC(=O)c3ccccc3)C(=O)O)OC2[C@H]1OC(=O)c1ccccc1` (some centres unmarked) [Compound No. 40, O^2',O^7' -dibenzoylgriseolic acid], the IC50 is 90 µM on cGMP PDE and 3.2 µM on cAMP PDE.

As to `Nc1ncnc2c1ncn2C1OC2=CC(C(=O)O)([C@@H](O)C(=O)O)OC2[C@@H]1N` (stereo partly drawn) [Compound No. 248, 2'(S)-amino-2'-deoxygriseolic acid], the IC50 on cGMP PDE is 12.7 µM; at cAMP PDE it was 3.2 µM.

On to `Nc1ncnc2c1ncn2C1OC2=CC(C(=O)O)([C@H](N)C(=O)O)OC2[C@H]1O` (stereo partly drawn) [Compound No. 135, 7'(S)-amino-7'-deoxygriseolic acid], for which the IC50 was 4.2 µM at cGMP PDE and 2 µM at cAMP PDE.
